Results published in patent US12605353B2, “PDIA4 inhibitors and use thereof for inhibiting β-cell pathogenesis and treating diabetes” (Academia Sinica, priority 2019, dated 2026).
pEC50, pIC50: −log10 of the molar value. Where two headings read alike, the source gives them in different places.

How the values were obtained:
db/db mice = assay: Anti-diabetes effect in db/db mice (blood glucose); format: in vivo, mouse; conditions: CPD 8 2.5 mg/kg, metformin 60 mg/kg; for fasting blood glucose (FBG) / postprandial blood glucose (PBG): sitagliptin 30 mg/kg
Protocol: (A-B) New-onset diabetes, Lepr^db/db mice, are grouped and treated with PBS vehicle (CTR), sitagliptin (STG, 30 Mg/kg), CPD8 (2.5 mg/kg), and a combination of CPD8 (2.5 mg/kg) and metformin […]) (CPD8+Met) for the indicated time. Fasting blood glucose (FBG (A)) and postprandial blood glucose (PBG (B)) of the mice were monitored. The value (n) is number of mice indicated in parentheses.
Moreover, we examined the in vivo anti-diabetes effect of CPD 8, one of drug candidates for Pdia4 inhibition, in db/db mice, a mouse model of type 2 diabetes. […] PBG in db/db mice (FIG. 4B).

[1] = Cell viability test (WST-1) in Min6 cells; format: cell-based, mouse; conditions: mouse
Protocol: (§1) (A) Effect of drug candidates on insulin secretion in β-cells. Min6 cells were incubated in serum-free oxygen-saturated Krebs-Ringer bicarbonate (KRB) buffer containing high glucose (16.7 mM), CCF642 and drug candidates for 30 min. The supernatants were collected for insulin ELISA assay. (B) Min6 cells were incubated with PBS, CCF642 and drug candidates, respectively, for 24 h. Following PBS washing, WST-1 was added into each well for additional 20 min incubation.
(§2) Min6 cells were cultured at 37° C. in complete medium. Cell cytotoxicity was determined using WST-1 (4-[3-(4-Iodophenyl)-2-(4-nitrophenyl)-2H-5-tetrazolio]-1,3-benzene Disulfonate) according to the manutkturet's guidelines. Briefly, the cells were grown in a […] containing complete medium in the presence of the indicated compounds for 24 h. Following PBS washing, WST-1 was added into each well for additional 20 min incubation. After removing the medium, the cells in the plate were measured with a SpectraMax i3x reader at 450 nm.

PDIA4 = target: T1, PDIA4 (Homo sapiens, UniProt P13667); assay: biochemical;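 note: enzymatic activity of PDIA4 read as absorbance at 595 nm, inhibition given as percent decrease relative to vehicle-treated control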
T1 sequence (P13667 21-645): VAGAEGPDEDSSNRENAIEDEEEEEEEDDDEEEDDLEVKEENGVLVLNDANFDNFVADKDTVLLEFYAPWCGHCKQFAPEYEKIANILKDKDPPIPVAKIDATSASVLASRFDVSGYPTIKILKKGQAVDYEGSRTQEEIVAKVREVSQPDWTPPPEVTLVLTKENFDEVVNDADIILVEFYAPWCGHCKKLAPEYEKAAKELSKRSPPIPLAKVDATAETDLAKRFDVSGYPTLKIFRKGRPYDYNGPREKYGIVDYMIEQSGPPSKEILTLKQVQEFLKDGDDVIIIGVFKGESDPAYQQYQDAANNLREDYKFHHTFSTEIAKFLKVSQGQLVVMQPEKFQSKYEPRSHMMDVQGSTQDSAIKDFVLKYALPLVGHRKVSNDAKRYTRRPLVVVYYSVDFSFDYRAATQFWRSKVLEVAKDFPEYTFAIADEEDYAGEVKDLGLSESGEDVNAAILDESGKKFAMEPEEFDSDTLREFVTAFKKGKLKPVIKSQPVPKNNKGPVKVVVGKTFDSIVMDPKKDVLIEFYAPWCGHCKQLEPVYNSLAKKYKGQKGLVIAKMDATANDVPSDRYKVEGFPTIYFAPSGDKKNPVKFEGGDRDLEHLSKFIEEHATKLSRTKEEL
Protocol: Recombinant PDI proteins PDIA4 (23 pM) was incubated with insulin (0.2 mM) and DTT (0.1 mM) in the presence of vehicle and compounds at the indicated doses for 30 min at 25° C. The mixture was, measured using a SpectraMax i3x reader at 595 nm based on the manufacturer's instructions (Molecular device, CA, USA). Inhibition of the enzymatic activity PDIA4 is calculated by the formula, 100%×(OD595 of vehicle−OD595 of CP)/(OD595 of vehicle) as published previously.

Min6 cells [2] = assay: Glucose-stimulated insulin secretion in Min6 cells (insulin ELISA); format: cell-based, mouse; conditions: for insulin secretion in β-cells, in words: Min6 β-cells
Protocol: as §1
Min6 cells were grown in complete Dulbecco's modified Eagle medium (DMEM) medium containing 10% fetal bovine serum, 100 units/ml penicillin and 100 µg/ml streptomycin in a 5% CO2 incubator in the presence of 3.3 mM glucose unless indicated otherwise. Min6 cells were pre-incubated in serum-free oxygen-saturated Krebs-Ringer bicarbonate (KRB) buffer containing 3.3 mM glucose at 37° C. for 30 min. The cells (7.5×10^4) were then incubated with KRB buffer containing high glucose (16.7 mM) or low glucose (3.3 mM) for an additional 30 min. The supernatants were collected for insulin ELISA assay.

Min6 cells [3] = assay: Cell viability test (WST-1) in Min6 cells; format: cell-based, mouse
Protocol: as §1, §2

[4] = Table 5, 24 h, WST-1, read-out: CC50
[5] = Min6, a mouse β-cells, read-out: EC50 values, insulin-releasing action
[6] = Mus musculus, 0.5 h, Table 5, insulin secretion, Min6 cells, high glucose (16.7 mM), 30 min, read-out: EC50

For `C#CC(=O)Nc1cc(OC)c(OC)cc1C(=O)O` [CPD 8, 4,5-dimethoxy-2-propiolamidobenzoic acid], the “reversal of type 2 diabetes” value (db/db mice) was “can reverse type 2 diabetes”, the “fasting blood glucose (FBG)” value (db/db mice) was “significantly decreased” and the “postprandial blood glucose (PBG)” value (db/db mice) was “significantly decreased”. The CC50 at 24 h [1, 4] was > 100 µM, the CC50 at 24 h ([1]; read-out: CC50 values) was > 100 µM and the pIC50 (PDIA4) was 5.40. The pEC50 (Min6 cells [2]; [5]) was 7.22, the “insulin secretion in β-cells, in words” value (Min6 cells [2]) was “could augment insulin secretion” and the pEC50 (Min6 cells [2]; [6]) was 7.22. The “SI (CC50/EC50)” value (Min6 cells [2]; Table 5, Min6 cells) was >1666.7.

Molecule `COc1ccc(N2C(=O)/C(=C\c3ccc([N+](=O)[O-])s3)SC2=S)cc1` [CCF642, reference compound] has a CC50 (Min6 cells [3]; [4]) of 23.9 µM, a CC50 (Min6 cells [3]; read-out: CC50 values) of 23.9 µM and a pEC50 (Min6 cells [2]; [5]) of 6.60. For the same molecule, the “insulin secretion in β-cells, in words” value (Min6 cells [2]) was “could augment insulin secretion” and the “SI (CC50/EC50)” value (Min6 cells [2]; Table 5, Min6 cells) was 95.6.

With `C#CC(=O)Nc1cc(OCCC)c(OCCC)cc1C(=O)OC` [compound 29, methyl 2-propiolamido-4,5-dipropoxybenzoate] the pIC50 (PDIA4) was < 3.52.

With `O=C(OCC#CC#CCOC(=O)c1ccccc1)c1ccccc1` [C10, hexa-2,4-diyne-1,6-diyl dibenzoate] the pIC50 (PDIA4) was < 3.00.

In the case of `C#CC(=O)Nc1cc(OC)c(OCCCN(C(=O)C#C)C(=O)Cc2ccccc2C(F)(F)F)cc1C(=O)OC` [58s, methyl 4-methoxy-2-propiolamido-5-(3-(N-(2-(2-(trifluoromethyl)phenyl)acetyl)propiolamido)propoxy)benzoate], the CC50 at 24 h [1, 4] was 64.9 µM, the CC50 at 24 h ([1]; read-out: CC50 values) was > 100 µM and the pEC50 (Min6 cells [2]; [5]) was 7.52. For the same molecule, the “insulin secretion in β-cells, in words” value (Min6 cells [2]) was “could augment insulin secretion” and the pEC50 (Min6 cells [2]; [6]) was 7.70.

In the case of `N[C@@H](CC(=O)N1CCn2c(nnc2C(F)(F)F)C1)Cc1cc(F)c(F)cc1F` [sitagliptin, reference compound], the “fasting blood glucose (FBG)” value (db/db mice) was “significantly reduced” and the “postprandial blood glucose (PBG)” value (db/db mice) was “significantly reduced”.

In the case of `C#CC(=O)Nc1cc(OC)c(OCCCN2C(=O)c3ccccc3C2=O)cc1C(=O)OC` [50b, methyl 5-(3-(1,3-dioxoisoindolin-2-yl)propoxy)-4-methoxy-2-propiolamidobenzoate], the pIC50 (PDIA4) was 5.37.

For `C#CC(=O)Nc1cc(OCCC)c(OCCC)cc1C(=O)OCCC` [compound 30, propyl 2-propiolamido-4,5-dipropoxybenzoate], the pIC50 (PDIA4) was < 3.52.

For `C#CC(=O)Nc1cc(OC)c(OCCCN(C(=O)C#C)C(=O)Cc2cccc(C(F)(F)F)c2)cc1C(=O)OC` [58t, methyl 4-methoxy-2-propiolamido-5-(3-(N-(2-(3-(trifluoromethyl)phenyl)acetyl)propiolamido)propoxy)benzoate], the CC50 at 24 h [1, 4] was > 100 µM, the CC50 at 24 h ([1]; read-out: CC50 values) was 64.9 µM and the pIC50 (PDIA4) was 6.10. The pEC50 (Min6 cells [2]; [5]) was 7.70, the “insulin secretion in β-cells, in words” value (Min6 cells [2]) was “could augment insulin secretion” and the pEC50 (Min6 cells [2]; [6]) was 7.52. The “SI (CC50/EC50)” value (Min6 cells [2]; Table 5, Min6 cells) was >3333.

For `C#CC(=O)OC(=O)c1cc(OC)c(OC)cc1N` [compound 10, 2-amino-4,5-dimethoxybenzoic propiolic anhydride], the pIC50 (PDIA4) was 5.80.

In the case of `COc1cc(C(=O)O)c(N)c(OC)c1OC` [compound 21, 2-amino-3,4,5-trimethoxybenzoic acid], the pIC50 (PDIA4) was < 3.00.

In the case of `O=C(Cc1ccccc1)OCC#CC#CCOC(=O)Cc1ccccc1` [C9, hexa-2,4-diyne-1,6-diyl bis(2-phenylacetate)], the pIC50 (PDIA4) was < 3.00.

For `C#CC(=O)Nc1ccc(C(=O)NCC(=O)O)cc1` [C11, (4-propiolamidobenzoyl)glycine], the pIC50 (PDIA4) was 4.56.

`C#CC(=O)OC(=O)c1cc(OCCC)c(OC)cc1N` [compound 45, 2-amino-4-methoxy-5-propoxybenzoic propiolic anhydride] gave a pIC50 (PDIA4) of 6.00.

Work on `C#CC(=O)Nc1cc(OC)c(OCCCN(C(=O)C#C)C(=O)c2cccc(OC)c2)cc1C(=O)OC` [58g] yielded a pIC50 (PDIA4) of 5.48.

Molecule `C#CC(=O)OC(=O)c1cc(OCc2ccccc2)c(OC)cc1N` [compound 16, 2-amino-5-(benzyloxy)-4-methoxybenzoic propiolic anhydride] has a pIC50 (PDIA4) of 4.88.

In the case of `C#CC(=O)Nc1c(C(=O)OC)cc(OC)c(OC)c1OC` [compound 20, methyl 3,4,5-trimethoxy-2-propiolamidobenzoate], the pIC50 (PDIA4) was 4.37.

Molecule `C#CC(=O)Nc1cc(OC)c(OC)cc1C(=O)OCC[Si](C)(C)C` [compound 7, 2-(trimethylsilyl)ethyl 4,5-dimethoxy-2-propiolamidobenzoate] has a pIC50 (PDIA4) of 4.10.

For `C#CC(=O)Nc1cc(OC)c(OCCCN(C(=O)C#C)C(=O)Cc2cccc(OC)c2)cc1C(=O)OC` [58n, methyl 4-methoxy-5-(3-(N-(2-(3-methoxyphenyl)acetyl)propiolamido)propoxy)-2-propiolamidobenzoate], the pIC50 (PDIA4) was 5.85.

For `C#CC(=O)Nc1cc(OC)c(OCCCN(C(=O)C#C)C(=O)c2cnco2)cc1C(=O)OC` [58v, methyl 4-methoxy-2-propiolamido-5-(3-(N-propioloyloxazole-5-carboxamido)propoxy)benzoate], the CC50 at 24 h [1, 4] was > 100 µM, the CC50 at 24 h ([1]; read-out: CC50 values) was > 100 µM and the pIC50 (PDIA4) was 6.52. For the same molecule, the pEC50 (Min6 cells [2]; [5]) was 8.30, the “insulin secretion in β-cells, in words” value (Min6 cells [2]) was “could augment insulin secretion” and the pEC50 (Min6 cells [2]; [6]) was 8.30. The “SI (CC50/EC50)” value (Min6 cells [2]; Table 5, Min6 cells) was >20000.

With `CC#CC#CC#CC#CCCC(CO)O[C@@H]1O[C@H](CO)[C@@H](O)[C@H](O)[C@H]1O` (stereo partly shown) [CPD P1, cytopiloyne, reference compound] the CC50 at 24 h [1, 4] was > 100 µM, the CC50 at 24 h ([1]; read-out: CC50 values) was > 100 µM and the pIC50 (PDIA4) was 3.68. For the same molecule, the pEC50 (Min6 cells [2]; [5]) was 5.81, the “insulin secretion in β-cells, in words” value (Min6 cells [2]) was “could augment insulin secretion” and the pEC50 (Min6 cells [2]; [6]) was 5.81. For the same molecule, the “SI (CC50/EC50)” value (Min6 cells [2]; Table 5, Min6 cells) was >64.5.

With `C#CC(=O)Nc1cc(OC)c(OCCCN(C(=O)C#C)C(=O)c2ccc(F)cc2)cc1C(=O)OC` [58d, methyl 5-(3-(4-fluoro-N-propioloylbenzamido)propoxy)-4-methoxy-2-propiolamidobenzoate] the pIC50 (PDIA4) was 5.62.
